Data published in PubChem BioAssay AID2060358 (Molecular Pharmacology Branch, DTP, NCI, 2025).
Several values for one entry are separate records, joined by “and”; a condition that tells them apart may be missing. Identical values can stand only once.

Test system: 254851-301-R-J1-PDC spheroids, viability % test/control
Assay: Anticancer human tumor 254851-301-R-J1-PDC patient-derived colon carcinoma cell line growth inhibition [TAK]
Settings: spheroids with HUVEC and MSC; for viability, T/C: stronger effect = lower value
Text: Combinatorial screen of targeted agents with TAK-243 and ipatasertib in multi-cell type tumor spheroids
A high-throughput screen of multi-cell type tumor spheroids was designed to identify active combinations of targeted small molecules and TAK-243 or ipatasertib. Complex spheroids include a stromal component modeled by human endothelial cells (HUVEC) and fibroblasts modeled by human mesenchymal stem cells (MSCs). The concentration ranges selected for each drug and investigational agent were based upon clinically achievable concentrations if the clinical Cmax of the agent was known.
Compounds. The drugs and investigational agents: TAK-243 (785004), ipatasertib (767898), everolimus (733504), selumetinib (741078), bortezomib (756655), trametinib (758246), ixazomib (758254), vemurafenib (761431), dabrafenib (764134), sapanisertib (764658), alpelisib (765974), and copanlisib (816437), were obtained from the National Cancer Institute (NCI) Developmental Therapeutics Program Chemical Repository. The FDA-approved anticancer drug set is available from the NCI Developmental Therapeutics Program. […] The stock solutions were prepared in dimethyl sulfoxide (DMSO, Sigma-Aldrich, St. Louis, MO, cat. D2650) at 800-fold the tested concentration and stored at -70 degrees C prior to their use. All drugs and investigational agents were tested over a range starting from a high concentration at or near the clinical Cmax and decreasing in half-log increments. If the clinical Cmax for an agent had not been determined, the highest concentration tested was 10 microM.
NCI60 Cell Culture. NCI60 cell lines were obtained from the NCI Developmental Therapeutics Program Tumor Repository. For each lot of cells, the Repository performed Applied Biosystems AmpFLSTR Identifiler testing with PCR amplification to confirm consistency with the published Identifier STR profile for each cell line. Cells were kept in continuous culture for no more than 20 passages. The optimal seeding densities for each of the cell lines at each time point assessed were determined prior to performing the concentration response studies. Briefly, the NCI60 human tumor lines were grown as monolayers in RPMI 1640 medium supplemented with 10% FBS and 2 mmol/L L-glutamine.
An additional 2 lines were from the NCI60 cell line panel including melanomas, MALME-3M and SK-MEL-2. Pooled donor human umbilical vein endothelial cells (HUVEC, Lonza, cat. CC-2519) and human mesenchymal stem cells (hMSC, Lonza, cat. PT-2501) were purchased from Lonza (Walkersville, MD).
PDMR cell lines were grown in complete medium (DC medium): Dulbecco's modified Eagle's medium (DMEM)/F12 supplemented with 5% fetal bovine serum (FBS), 2 mM L-glutamine, 100 U/mL penicillin and 100 µg/ml streptomycin, 0.4 µg/ml hydrocortisone, 10 ng/ml epidermal growth factor (EGF) recombinant human protein, 24 µg/mL adenine, and 0.1 mg/mL primocin. During culture from frozen stock vials, PDMR cells were cultured in the same medium containing 10 µM Y-27632 (see Table 3). The PDCs were cultured in complete DMEM/F12 media without 10 microM Y-27632 dihydrochloride for at least two passages prior to the screen. The pooled donor HUVEC and hMSC were cultured in endothelial cell growth medium 2 (PromoCell, Heidelberg, Germany, cat. C-22011) and mesenchymal stem cell growth medium 2 (PromoCell, cat. C-28009), respectively. For all experiments, HUVEC and hMSC were used at passages </=5.
For the pre-screen, cell seeding densities were determined from a titration spanning the range from 5,000 to 313 cells per well. The mct-spheroids including 60% malignant cells, 25% HUVEC and 15% MSC dispensed as a mixture into U-bottom Ultra-Low Attachment 384-well plates (Corning, NY)
High-throughput Drug Combination Screening.
Prior to their inoculation into 384-well plates, malignant cells, HUVEC, and hMSC were removed from T flasks using TrypLE express (Thermo Fisher Scientific, cat. 12605036) and harvested by centrifugation for 5 min at 233 x g. […]
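Further: spheroids exposed to drugs for seven days before viability readout.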

## CCCS(=O)(=O)Nc1ccc(F)c(C(=O)c2c[nH]c3ncc(-c4ccc(Cl)cc4)cc23)c1F
Compound 0.316 µM
  viability, T/C: 109% and 106%
Compound 1 µM
  viability, T/C: 93.3% and 90.5%
Compound 3.16 µM
  viability, T/C: 84.6% and 79.4%
Compound 10 µM
  viability, T/C: 72.3% and 77.4%
Compound 31.6 µM
  viability, T/C: 73.7% and 71.4%
Compound 100 µM
  viability, T/C: 63.9% and 73.8%
Curve of compound
  IC50: > 100000 nM

## Cc1nc(NC(=O)N2CCCC2C(N)=O)sc1-c1ccnc(C(C)(C)C(F)(F)F)c1 (centres undefined)
Compound 0.0316 µM
  viability, T/C: 123% and 110%
Compound 0.1 µM
  viability, T/C: 103% and 110%
Compound 0.316 µM
  viability, T/C: 95.7% and 91.7%
Compound 1 µM
  viability, T/C: 92.6% and 92.3%
Compound 3.16 µM
  viability, T/C: 84% and 79.1%
Compound 10 µM
  viability, T/C: 70.8% and 71.9%
Curve of compound
  IC50: > 10000 nM

## CC(C)CC(NC(=O)C(Cc1ccccc1)NC(=O)c1cnccn1)B(O)O (centres undefined) + CC(C)NCC(C(=O)N1CCN(c2ncnc3c2C(C)CC3O)CC1)c1ccc(Cl)cc1
Curve of first compound, second compound 0.3 µM
  IC50: > 10 nM
Curve of first compound, second compound 0.949 µM
  IC50: > 10 nM
Curve of first compound, second compound 3 µM
  IC50: > 10 nM
Curve of first compound, second compound 9.49 µM
  IC50: > 10 nM
Curve of first compound, second compound 30 µM
  IC50: > 10 nM
Second compound 0.3 µM, first compound 31.6 pM
  viability, T/C: 118%
Second compound 0.3 µM, first compound 0.0001 µM
  viability, T/C: 124%
Second compound 0.3 µM, first compound 0.000316 µM
  viability, T/C: 109%
Second compound 0.3 µM, first compound 0.001 µM
  viability, T/C: 112%
Second compound 0.3 µM, first compound 0.00316 µM
  viability, T/C: 103%
Second compound 0.3 µM, first compound 0.01 µM
  viability, T/C: 79.9%
Second compound 0.949 µM, first compound 31.6 pM
  viability, T/C: 112%
Second compound 0.949 µM, first compound 0.0001 µM
  viability, T/C: 114%
Second compound 0.949 µM, first compound 0.000316 µM
  viability, T/C: 101%
Second compound 0.949 µM, first compound 0.001 µM
  viability, T/C: 107%
Second compound 0.949 µM, first compound 0.00316 µM
  viability, T/C: 103%
Second compound 0.949 µM, first compound 0.01 µM
  viability, T/C: 87.9%
Second compound 3 µM, first compound 31.6 pM
  viability, T/C: 108%
Second compound 3 µM, first compound 0.0001 µM
  viability, T/C: 114%
Second compound 3 µM, first compound 0.000316 µM
  viability, T/C: 110%
Second compound 3 µM, first compound 0.001 µM
  viability, T/C: 109%
Second compound 3 µM, first compound 0.00316 µM
  viability, T/C: 111%
Second compound 3 µM, first compound 0.01 µM
  viability, T/C: 86.6%
Second compound 9.49 µM, first compound 31.6 pM
  viability, T/C: 106%
Second compound 9.49 µM, first compound 0.0001 µM
  viability, T/C: 110%
Second compound 9.49 µM, first compound 0.000316 µM
  viability, T/C: 112%
Second compound 9.49 µM, first compound 0.001 µM
  viability, T/C: 104%
Second compound 9.49 µM, first compound 0.00316 µM
  viability, T/C: 99%
Second compound 9.49 µM, first compound 0.01 µM
  viability, T/C: 81.4%
Second compound 30 µM, first compound 31.6 pM
  viability, T/C: 90.3%
Second compound 30 µM, first compound 0.0001 µM
  viability, T/C: 98.9%
Second compound 30 µM, first compound 0.000316 µM
  viability, T/C: 94.4%
Second compound 30 µM, first compound 0.001 µM
  viability, T/C: 89%
Second compound 30 µM, first compound 0.00316 µM
  viability, T/C: 85.7%
Second compound 30 µM, first compound 0.01 µM
  viability, T/C: 71%
